Data reported in US12162890B2 (Novartis AG, priority 2015, dated 2024).

Target: HEK293 cells with stable expression of the GRIN1 gene and tetracycline-inducible expression of the GRIN2B gene (NMDA receptor, NR2B) (Homo sapiens, UniProt Q13224)
Experiment: Fluo-8 Ca2+ flux assay: reversal of Ro 25-6981-mediated suppression of the Ca2+ response to co-agonist (glutamate/glycine); note: test concentration or dose not given here
Assay type: cell-based
Settings: reversal of the Ro 25-6981 suppression of the Ca2+ response to co-agonist (glutamate/glycine)

Chain of HEK293 cells with stable expression of the GRIN1 gene and tetracycline-inducible expression of the GRIN2B gene (NMDA receptor, NR2B) (Q13224 27-1484, other chains not shown): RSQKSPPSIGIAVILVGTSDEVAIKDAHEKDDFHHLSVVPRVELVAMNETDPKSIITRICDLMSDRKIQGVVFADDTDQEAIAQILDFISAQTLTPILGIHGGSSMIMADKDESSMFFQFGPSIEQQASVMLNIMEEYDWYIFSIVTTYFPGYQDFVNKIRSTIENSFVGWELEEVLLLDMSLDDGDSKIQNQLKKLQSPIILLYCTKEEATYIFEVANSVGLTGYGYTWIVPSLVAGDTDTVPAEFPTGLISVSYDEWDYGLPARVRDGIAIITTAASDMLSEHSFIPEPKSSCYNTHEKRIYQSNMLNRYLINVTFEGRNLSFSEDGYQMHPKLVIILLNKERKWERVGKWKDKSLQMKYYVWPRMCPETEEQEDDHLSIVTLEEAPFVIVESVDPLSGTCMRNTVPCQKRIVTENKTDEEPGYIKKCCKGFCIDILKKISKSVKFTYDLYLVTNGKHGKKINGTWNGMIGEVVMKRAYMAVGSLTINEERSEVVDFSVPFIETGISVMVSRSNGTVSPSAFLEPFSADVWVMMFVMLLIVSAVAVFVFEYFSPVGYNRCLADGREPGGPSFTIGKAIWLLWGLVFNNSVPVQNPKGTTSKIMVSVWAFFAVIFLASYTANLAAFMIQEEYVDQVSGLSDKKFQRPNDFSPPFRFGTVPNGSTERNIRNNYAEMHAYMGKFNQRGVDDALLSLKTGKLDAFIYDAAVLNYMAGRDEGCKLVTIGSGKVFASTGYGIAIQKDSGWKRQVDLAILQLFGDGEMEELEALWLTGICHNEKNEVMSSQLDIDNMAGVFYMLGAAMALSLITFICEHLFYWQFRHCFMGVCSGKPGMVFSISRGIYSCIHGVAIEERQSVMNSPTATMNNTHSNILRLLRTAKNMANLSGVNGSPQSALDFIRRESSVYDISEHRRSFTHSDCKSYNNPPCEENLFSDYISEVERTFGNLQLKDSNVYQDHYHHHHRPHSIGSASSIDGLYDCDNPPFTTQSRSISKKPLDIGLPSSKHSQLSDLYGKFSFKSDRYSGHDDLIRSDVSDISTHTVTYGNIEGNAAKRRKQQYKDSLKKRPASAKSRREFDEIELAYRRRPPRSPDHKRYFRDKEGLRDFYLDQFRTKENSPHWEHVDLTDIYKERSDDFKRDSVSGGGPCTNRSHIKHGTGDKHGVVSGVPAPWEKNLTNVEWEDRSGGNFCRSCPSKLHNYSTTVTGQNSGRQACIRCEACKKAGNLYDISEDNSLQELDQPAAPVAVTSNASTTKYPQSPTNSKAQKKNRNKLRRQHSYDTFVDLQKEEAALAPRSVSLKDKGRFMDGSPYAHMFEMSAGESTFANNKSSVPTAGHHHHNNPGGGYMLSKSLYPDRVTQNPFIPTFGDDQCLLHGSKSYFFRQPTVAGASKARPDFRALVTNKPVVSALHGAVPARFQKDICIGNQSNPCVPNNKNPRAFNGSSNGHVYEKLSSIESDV

| SMILES | Response Recovered (%) |
| --- | --- |
| O=C(Cn1cc(N2CCC2)c2scc(-c3ccc(F)c(C(F)(F)F)c3)c2c1=O)N1CCC(F)C1 (stereo not drawn) [Example 115, 7-(azetidin-1-yl)-3-[4-fluoro-3-(trifluoromethyl)phenyl]-5-[2-(3-fluoropyrrolidin-1-yl)-2-oxoethyl]-4H,5H-thieno[3,2-c]pyridin-4-one] | 8.3 |
| Cc1cc(-c2csc3ccn(CC(=O)N4CC(C)(F)C4)c(=O)c23)ccc1Cl [Example 22, 3-(4-chloro-3-methylphenyl)-5-(2-(3-fluoro-3-mehtylazetidin-1-yl)-2-oxoethyl)thieno[3,2-c]pyridin-4(5H)-one] | 130 |
| O=C(Cn1ccc2scc(-c3ccc(F)c(Cl)c3)c2c1=O)N1CC(F)C1 [Example 47, 3-(3-chloro-4-fluorophenyl)-5-(2-(3-fluoroazetidin-1-yl)-2-oxoethyl)thieno[3,2-c]pyridin-4(5H)-one] | 23 |
| O=C(Cn1ccc2scc(-c3ccc(F)c(Cl)c3)c2c1=O)N1CC(F)(F)C1 [Example 8, 3-(3-Chloro-4-fluorophenyl)-5-[2-(3,3-difluoro-azetidin-1-yl)-2-oxo-ethyl]-5H-thieno[3,2-c]pyridin-4-one] | 66 |
| CCn1cc(-c2ccc(Cl)c(C(F)(F)F)c2)c2c(=O)n(CC(=O)N3CCCC3)cnc21 [Example 157, 5-(4-chloro-3-(trifluoromethyl)phenyl)-7-ethyl-3-(2-oxo-2-(pyrrolidin-1-yl)ethyl)-3H-pyrrolo[2,3-d]pyrimidin-4(7H)-one] | 70 |
| O=C(Cn1ccc2[nH]cc(-c3ccc(Cl)c(Cl)c3)c2c1=O)N1CCCC1 [Example 217, 3-(3,4-dichlorophenyl)-5-(2-oxo-2-(pyrrolidin-1-yl)ethyl)-1H-pyrrolo[3,2-c]pyridin-4(5H)-one] | 70 |
| CC1(F)CN(C(=O)Cn2ccc3c(c(-c4ccc(F)c(Cl)c4)cn3C3CC3)c2=O)C1 [Example 285, 3-(3-chloro-4-fluorophenyl)-1-cyclopropyl-5-(2-(3-fluoro-3-methylazetidin-1-yl)-2-oxoethyl)-1H-pyrrolo[3,2-c]pyridin-4(5H)-one] | 140 |
| O=C(Cn1ccc2scc(-c3ccc(F)c(C(F)(F)F)c3)c2c1=O)N1CC[C@H](F)C1 [Example 26, (S)-3-(4-fluoro-3-(trifluoromethyl)phen-yl)-5-(2-(3-fluoropyrrolidin-1-yl)-2-oxoethyl)thieno[3,2-c]pyridin-4(5H)-one] | 103 |
| CN(C)Cc1cn(CC(=O)N2CCC(F)C2)c(=O)c2c(-c3ccc(F)c(Cl)c3)csc12 (stereo not drawn) [Example 120, 3-(3-chloro-4-fluorophenyl)-7-((dimelhylamino)methyl)-5-(2-(3-fluoropyrrolidin-1-yl)-2-oxoethyl)thieno[3,2-c]pyridin-4(5H)-one] | 61 |
| Cc1nc(-c2ccc(F)c(Cl)c2)c2c(=O)n(CC(=O)N3CC(C)(F)C3)ccn12 [Example 426, 1-(3-chloro-4-fluorophenyl)-7-(2-(3-fluoro-3-methylazetidin-1-yl)-2-oxoethyl)-3-methylimidazo[1,5-a]pyrazin-8(7H)-one] | 30 |
| O=C(Cn1ccc2c(c(-c3ccc(F)c(C(F)(F)F)c3)cn2C2COC2)c1=O)N1CCC(F)C1 (stereo not drawn) [Example 265, 3-(4-fluoro-3-(trifluoromethyl)phenyl)-5-(2-(3-fluoropyrrolidin-1-yl)-2-oxoethyl)-1-(oxetan-3-yl)-1H-pyrrolo[3,2-c]pyridin-4(5H)-one] | 61 |
| CC1(NC(=O)OC(C)(C)C)CN(C(=O)Cn2ccc3scc(-c4ccc(Cl)c(Cl)c4)c3c2=O)C1 [Example 73, tert-butyl (1-(2-(3-(3,4-dichlorophenyl)-4-oxothieno[3,2-c]pyridin-5(4H)-yl)acetyl)-3-methylazetidin-3-yl)carbamate] | 9.8 |
| O=C(Cn1ccc2c(c(-c3ccc(F)c(C(F)(F)F)c3)cn2C2CC2)c1=O)N1CCC(F)C1 (stereo not drawn) [Example 231, 1-cyclopropyl-3-(4-fluoro-3-(trifluoromethyl)phenyl)-5-(2-(3-fluoropyrrolidin-1-yl)-2-oxoethyl)-1H-pyrrolo[3,2-c]pyridin-4(5H)-one] | 90 |
| O=C(Cn1cnc2c(c(-c3ccc(Cl)c(F)c3)cn2C2CC2)c1=O)N1CCCC1 [Example 191, 5-(4-chloro-3-fluorophenyl)-7-cyclopropyl-3-(2-oxo-2-(pyrrolidin-1-yl)ethyl)-3H-pyrrolo[2,3-d]pyrimidin-4(7H)-one] | 36 |
| CC1(F)CN(C(=O)Cn2ccn3cnc(-c4ccc(F)c(Cl)c4)c3c2=O)C1 [Example 445, 1-(3-chloro-4-fluorophenyl)-7-(2-(3-fluoro-3-methylazetidin-1-yl)-2-oxoethyl)imidazo[1,5-a]pyrazin-8(7H)-one] | 34 |
| COCCn1cc(-c2ccc(Cl)c(C(F)(F)F)c2)c2c(=O)n(CC(=O)N3CCCC3)cnc21 [Example 185, 5-(4-chloro-3-(trifluoromethyl)phenyl)-7-(2-methoxyethyl)-3-(2-oxo-2-(pyrrolidin-1-yl)ethyl)-3H-pyrrolo[2,3-d]pyrimidin-4(7H)-one] | 76 |
| CC1CN(C(=O)Cn2ccc3scc(-c4ccc(F)c(Cl)c4)c3c2=O)C1 [Example 48, 3-(3-chloro-4-fluorophenyl)-5-(2-(3-methylazetidin-1-yl)-2-oxoethyl)thieno[3,2-c]pyridin-4(5H)-one] | 67 |

More lines, now with the values ahead:

| Response Recovered (%) | SMILES |
| --- | --- |
| 15 | O=C(Cn1cnc2[nH]cc(-c3cnc(Cl)c(Cl)c3)c2c1=O)N1CCC(F)C1 (stereo not drawn) [Example 180, 5-(5,6-dichloropyridin-3-yl)-3-(2-(3-fluoropyrrolidin-1-yl)-2-oxoethyl)-3H-pyrrolo[2,3-d]pyrimidin-4(7H)-one] |
| 15 | O=C(Cn1ccc2scc(-c3ccc(F)c(Cl)c3)c2c1=O)N1CC(F)(c2ccccc2)C1 [Example 57, 3-(3-chloro-4-fluorophenyl)-5-(2-(3-fluoro-3-phenylazetidin-1-yl)-2-oxoethyl)thieno[3,2-c]pyridin-4(5H)-one] |
| 1 | CC1(N)CN(C(=O)Cn2ccc3scc(-c4ccc(F)c(Cl)c4)c3c2=O)C1 [Example 95] |
| 160 | CC1(F)CN(C(=O)Cn2ccn3ccc(-c4ccc(F)c(C(F)(F)F)c4)c3c2=O)C1 [Example 401, 8-(4-fluoro-3-(trifluoromethyl)phenyl)-2-(2-(3-fluoro-3-methylazetidin-1-yl)-2-oxoethyl)pyrrolo[1,2-a]pyrazin-1(2H)-one] |
| 11 | COC1(C)CN(C(=O)Cn2ccc3scc(-c4ccc(F)c(Cl)c4)c3c2=O)C1 [Example 62, 3-(3-chloro-4-fluorophenyl)-5-(2-(3-methoxy-3-methylazetidin-1-yl)-2-oxoethyl)thieno[3,2-c]pyridin-4(5H)-one] |
| 7.3 | O=C(Cn1ccc2scc(-c3ccc(F)c(Cl)c3)c2c1=O)NCC(F)(F)F [Example 56, 2-(3-(3-chloro-4-fluorophenyl)-4-oxothieno[3,2-c]pyridin-5(4H)-yl)-N-(2,2,2-trifluoroethyl)aceta-mide] |
| 16 | COC1(C)CN(C(=O)Cn2ccc3scc(-c4ccc(Cl)c(Cl)c4)c3c2=O)C1 [Example 63, 3-(3,4-dichlorophenyl)-5-(2-(3-methoxy-3-methylazetidin-1-yl)-2-oxoethyl)thieno[3,2-c]pyridin-4(5H)-one] |
| 84 | O=C(Cn1ccc2[nH]cc(-c3ccc(Cl)c(Cl)c3)c2c1=O)N1CCC(F)C1 (stereo not drawn) [Example 214, 3-(3,4-dichlorophenyl)-5-(2-(3-fluoropyrrolidin-1-yl)-2-oxoethyl)-1H-pyrrolo[3,2-c]pyridin-4(5H)-one] |
| 39 | O=C(Cn1ccc2c(c(-c3ccc(F)c(Cl)c3)cn2-c2ccccn2)c1=O)N1CCC(F)C1 (stereo not drawn) [Example 228, 3-(4-chloro-4-fluorophenyl)-5-(2-(3-fluoropyrrolidin-1-yl)-2-oxoethyl)-1-(pyridin-2-yl)-1H-pyrrolo[3,2-c]pyridin-4(5H)-one] |
| −4.1 | CCC1(F)CN(C(=O)Cn2ccc3scc(-c4cnc(Cl)nc4)c3c2=O)C1 [Example 141, 3-(2-chloropyrimidin-5-yl)-5-(2-(3-ethyl-3-fluoroazetidin-1-yl)-2-oxoethyl)thieno[3,2-c]pyridin-4(5H)-one] |
| 42 | CCn1cc(-c2ccc(F)c(Cl)c2)c2c(=O)n(CC(=O)N3CCCC3)cnc21 [Example 160, 5-(3-chloro-4-fluorophenyl)-7-ethyl-3-(2-oxo-2-(pyrrolidin-1-yl)ethyl)-3H-pyrrolo[2,3-d]pyrimidin-4(7H)-one] |
| 71 | O=C(Cn1ccc2c(c(-c3ccc(F)c(C(F)(F)F)c3)cn2CC(F)F)c1=O)N1CCC(F)C1 (stereo not drawn) [Example 279, 1-(2,2-difluoroethyl)-3-(4-fluoro-3-(trifluoromethyl)phenyl)-5-(2-(3-fluoropyrrolidin-1-yl)-2-oxoethyl)-1H-pyrrolo[3,2-c]pyridin-4(5H)-one] |
| 35 | Cc1cn(CC(=O)N2CCC(F)C2)c(=O)n2c(-c3ccc(F)c(C(F)(F)F)c3)cnc12 (stereo not drawn) [Example 454, 3-(4-fluoro-3-(trifluoromethyl)phenyl)-6-(2-(3-fluoropyrrolidin-1-yl)-2-oxoethyl)-8-methylimidazo[1,2-c]pyrimidin-5(6H)-one] |
| 79 | O=C(Cn1ccc2scc(-c3ccc(Cl)c(C(F)(F)F)c3)c2c1=O)N1CC(F)C1 [Example 34, 3-(4-chloro-3-(trifluoromethyl)phen-yl)-5-(2-(3-fluoroazetidin-1-yl)-2-oxoethyl)thieno[3,2-c]pyridin-4(5H)-one] |
| 3 | O=C(Cn1ccc2ccc(-c3ccc(Cl)c(C(F)(F)F)c3)cc2c1=O)N1CC(F)(F)C1 [Example 312, 7-(4-chloro-3-(trifluoromethyl)phenyl)-2-(2-(3,3-difluoroazetidin-1-yl)-2-oxoethyl)isoquinolin-1(2H)-one] |
| 46 | CC1(F)CN(C(=O)Cn2ccn3c(C4CC4)nc(-c4cnc(F)c(Cl)c4)c3c2=O)C1 [Example 441, 1-(5-chloro-6-fluoropyridin-3-yl)-3-cyclopropyl-7-(2-(3-fluoro-3-methylazetidin-1-yl)-2-oxoethyl)imidazo[1,5-a]pyrazin-8(7H)-one] |
